Test systems include 786-0 renal; EKVX NSCLC; HT29 colon; M14 melanoma; NCI-H23 lung; SN12C renal; MALME-3M melanoma; SF-268 CNS; T-47D breast; HS 578T breast.
Common to all, as to experiment: NCI anticancer screen, dose series, 48 h

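Where inhibition never reached the appropriate level, the endpoint shown equals the highest concentration tested. Otherwise, values were interpolated linearly from a five-concentration, 48-hour dose response in 96-well plates. GI50 is the concentration that inhibits growth by half. TGI: concentration producing complete growth inhibition.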

For `CCOC(=O)NC(=O)c1cn(CCCCCCCCCCC(=O)N2CCN(CCn3cc(C(=O)NC(=O)OCC)c(=O)[nH]c3=O)CC2)c(=O)[nH]c1=O`, the TGI in the assay on 786-0 renal, with EKVX NSCLC, in the assay with HT29 colon, in the assay with M14 melanoma, in the assay with NCI-H23 lung and with SN12C renal was more than 100 µM throughout.
On to `CC1=C(C)C(=O)c2c(cc3c4ccccc4ccn23)C1=O`, for which the TGI in the assay on 786-0 renal, in the assay with EKVX NSCLC, in the assay on HT29 colon, in the assay with M14 melanoma, in the assay on MALME-3M melanoma and with NCI-H23 lung was more than 100 µM each time. The compound also showed a TGI in the assay with SN12C renal of more than 100 µM.
On to `CCCCCCCCCCCCCCCCc1c(C(=O)OC)[nH]c(=S)[nH]c1=O`, for which the TGI in the assay with 786-0 renal, in the assay on EKVX NSCLC, in the assay with HT29 colon, in the assay with M14 melanoma, in the assay on MALME-3M melanoma and in the assay with NCI-H23 lung was more than 50 µM each time. The TGI in the assay with SF-268 CNS and with SN12C renal was more than 50 µM each time.
As to `Cn1c(O)c(C=N)c(=O)n(C)c1=O`, the TGI with 786-0 renal, with EKVX NSCLC, with HT29 colon, in the assay with M14 melanoma, in the assay with MALME-3M melanoma and in the assay with NCI-H23 lung was more than 100 µM in each case. The TGI in the assay with SF-268 CNS and in the assay with SN12C renal was more than 100 µM in each case.
For `OCC1OC(n2ccc3cnccc32)CC1O` (stereo unspecified), the TGI in the assay on 786-0 renal, with EKVX NSCLC, with HT29 colon, with M14 melanoma, with MALME-3M melanoma and in the assay with NCI-H23 lung was more than 100 µM each time. Also, in the assay on SN12C renal, the TGI is more than 100 µM.
As for `[Ce+3].[Cl-].[O-]/N=C(\c1ccccc1)c1ccccn1.[O-]/N=C(\c1ccccc1)c1ccccn1.[O-]/N=C(\c1ccccc1)c1ccccn1`, the GI50 in the assay on 786-0 renal is 47 µM; in the assay with EKVX NSCLC, 30.2 µM; in the assay with HT29 colon, 72 µM; with M14 melanoma, 35.7 µM; in the assay with MALME-3M melanoma, 69.8 µM; in the assay on NCI-H23 lung, 59.8 µM. Moreover, the values for the GI50 with SF-268 CNS and in the assay on SN12C renal were 44.4 µM and 47.9 µM, respectively. Further, the TGI in the assay on 786-0 renal, in the assay with EKVX NSCLC, with HT29 colon, in the assay on M14 melanoma, with MALME-3M melanoma and in the assay with NCI-H23 lung was more than 100 µM each time. Besides, the TGI in the assay on SF-268 CNS and in the assay with SN12C renal was more than 100 µM in each case.
Consider `NCC(=O)Nc1ccc(-n2nc(C(F)(F)F)cc2-c2ccc3c(ccc4ccccc43)c2)cc1`, for which the GI50 with 786-0 renal was 1.47 µM; with HT29 colon it was 0.937 µM; in the assay with M14 melanoma it was 1.61 µM; in the assay with MALME-3M melanoma it was 1.83 µM; with NCI-H23 lung, 1.78 µM; with SF-268 CNS, 1.13 µM. Besides, the GI50 with SN12C renal was 1.65 µM; in the assay with T-47D breast, 1.62 µM. The TGI with 786-0 renal came to 3.06 µM; with HT29 colon it was 2.27 µM; with M14 melanoma, 3.24 µM; in the assay on MALME-3M melanoma it was 3.51 µM; in the assay on NCI-H23 lung, 3.75 µM; in the assay with SF-268 CNS, 2.75 µM. Besides, the TGI in the assay on SN12C renal came out at 3.4 µM; in the assay with T-47D breast, 3 µM.
As for `CC1C(=O)CCC1C(Sc1ccccc1)(Sc1ccccc1)Sc1ccccc1` (stereo unspecified), the TGI in the assay on 786-0 renal, with EKVX NSCLC, with HT29 colon, in the assay with M14 melanoma, with MALME-3M melanoma and in the assay on NCI-H23 lung was more than 100 µM in each case. The results for the TGI in the assay with SF-268 CNS and with SN12C renal were 46.3 µM and 91 µM, respectively.
With `CCOC(=O)/C(=C/c1cc(OC)ccc1OC)CC(=O)O`, the TGI was more than 31.6 µM in the assay with 786-0 renal; more than 100 µM in the assay on EKVX NSCLC; more than 100 µM with HT29 colon; more than 100 µM with M14 melanoma; more than 31.6 µM with MALME-3M melanoma; more than 100 µM in the assay on NCI-H23 lung. In addition, the TGI in the assay on SF-268 CNS and in the assay on SN12C renal was more than 100 µM each time.
Turning to `Nc1ccccc1S(=O)c1ccccc1` (stereo unspecified), the TGI is more than 100 µM in the assay on 786-0 renal; more than 100 µM with EKVX NSCLC; more than 1 µM in the assay on HT29 colon; more than 100 µM in the assay with M14 melanoma; more than 100 µM in the assay on MALME-3M melanoma; more than 100 µM in the assay with NCI-H23 lung. Moreover, the TGI in the assay on SF-268 CNS and in the assay with SN12C renal was more than 100 µM each time.
In the case of `CC12Oc3ccc4ccccc4c3C1c1c(ccc3ccccc13)O2` (stereo unspecified), the TGI in the assay with 786-0 renal, in the assay on EKVX NSCLC, in the assay on HT29 colon, in the assay on M14 melanoma, in the assay with MALME-3M melanoma and in the assay with NCI-H23 lung was more than 100 µM in each case. Further, the TGI in the assay with SF-268 CNS and with SN12C renal was more than 100 µM in each case.
As for `CC(=O)c1cc2c3c(c1)c1cc4c(cc1c(=O)n3CC2)OCO4`, the TGI in the assay with 786-0 renal, with EKVX NSCLC, with HT29 colon, with M14 melanoma, in the assay on MALME-3M melanoma and with NCI-H23 lung was more than 100 µM in each case. This compound also registered a TGI with SN12C renal of more than 100 µM.
As for `Cc1ccccc1NC(=O)N/C(N)=N/c1nc2ccccc2s1`, the GI50 in the assay on 786-0 renal is 0.0646 µM; with HS 578T breast, 0.0494 µM; in the assay on HT29 colon, 0.039 µM; in the assay on M14 melanoma it was 0.0348 µM; in the assay on MALME-3M melanoma it was 0.0693 µM; in the assay on NCI-H23 lung, 0.209 µM. The GI50 was 1.5 µM with SF-268 CNS and 0.0853 µM in the assay with SN12C renal. In addition, the TGI was more than 100 µM in the assay on 786-0 renal; more than 100 µM in the assay on EKVX NSCLC; more than 100 µM in the assay on HS 578T breast; more than 100 µM in the assay with HT29 colon; 1.41 µM with M14 melanoma; more than 100 µM in the assay on MALME-3M melanoma. The TGI in the assay with NCI-H23 lung, in the assay with SF-268 CNS and with SN12C renal was more than 100 µM in each case.
As to `Cn1nc(-c2ccccc2)c(C(=O)/C=C/c2ccccc2)c(N2CCCCC2)c1=O`, the TGI with 786-0 renal is more than 100 µM; in the assay on EKVX NSCLC it was more than 100 µM; in the assay with HT29 colon, 69 µM; in the assay on M14 melanoma, more than 100 µM; with NCI-H23 lung, more than 100 µM; in the assay with SF-268 CNS, more than 100 µM. Further, the TGI in the assay with SN12C renal was more than 100 µM.

Values taken from PubChem BioAssay (NCI).
